{"source": "paper PMC8800111", "about": "(The Journal of Biological Chemistry, 2021)", "type_in_all_cases": "cell-based", "key": {"[1]": {"target": "proteins of U3A human fibrosarcoma cells (4462 proteins detected) (Homo sapiens, UniProt O00505)", "conditions": "protein KPNA3; U3A cells"}, "[2]": {"target": "proteins of U3A human fibrosarcoma cells (4462 proteins detected) (Homo sapiens, UniProt O75400)", "conditions": "protein PRPF40A; U3A cells"}, "[3]": {"target": "proteins of U3A human fibrosarcoma cells (4462 proteins detected) (Homo sapiens, UniProt O75449)", "conditions": "protein KATNA1; U3A cells"}, "[4]": {"target": "proteins of U3A human fibrosarcoma cells (4462 proteins detected) (Homo sapiens, UniProt O75663)", "sequence (O75663 whole entry)": "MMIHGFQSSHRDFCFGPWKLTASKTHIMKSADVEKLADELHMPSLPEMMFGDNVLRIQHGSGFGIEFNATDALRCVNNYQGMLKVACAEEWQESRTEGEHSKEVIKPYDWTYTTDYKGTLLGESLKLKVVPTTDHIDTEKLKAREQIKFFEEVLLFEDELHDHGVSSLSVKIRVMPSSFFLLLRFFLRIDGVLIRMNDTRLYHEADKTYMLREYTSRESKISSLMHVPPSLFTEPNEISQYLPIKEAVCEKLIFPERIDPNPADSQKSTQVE", "conditions": "protein TIPRL; soluble abundance after heat, U3A cells"}, "[5]": {"target": "proteins of U3A human fibrosarcoma cells (4462 proteins detected) (Homo sapiens, UniProt O95197)", "conditions": "protein RTN3; U3A cells"}, "[6]": {"target": "proteins of U3A human fibrosarcoma cells (4462 proteins detected) (Homo sapiens, UniProt O95456)", "conditions": "protein PSMG1, U3A cells"}, "[7]": {"target": "proteins of U3A human fibrosarcoma cells (4462 proteins detected) (Homo sapiens, UniProt P04083)", "conditions": "protein ANXA1, U3A cells"}, "[8]": {"target": "proteins of U3A human fibrosarcoma cells (4462 proteins detected) (Homo sapiens, UniProt P13489)", "sequence (P13489 whole entry)": "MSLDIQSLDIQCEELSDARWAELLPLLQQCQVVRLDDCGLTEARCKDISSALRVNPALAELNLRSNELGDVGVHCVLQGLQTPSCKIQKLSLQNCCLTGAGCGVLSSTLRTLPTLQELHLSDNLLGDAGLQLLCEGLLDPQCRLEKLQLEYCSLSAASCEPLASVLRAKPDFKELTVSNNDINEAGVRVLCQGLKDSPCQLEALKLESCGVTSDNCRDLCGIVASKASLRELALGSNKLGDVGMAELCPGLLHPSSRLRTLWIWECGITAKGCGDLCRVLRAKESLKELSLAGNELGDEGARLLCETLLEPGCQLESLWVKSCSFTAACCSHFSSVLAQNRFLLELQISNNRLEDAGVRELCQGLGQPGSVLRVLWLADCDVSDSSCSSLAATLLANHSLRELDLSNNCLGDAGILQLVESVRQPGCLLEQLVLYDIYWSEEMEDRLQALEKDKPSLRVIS", "conditions": "protein RNH1; U3A cells"}, "[9]": {"target": "proteins of U3A human fibrosarcoma cells (4462 proteins detected) (Homo sapiens, UniProt P20700)", "conditions": "protein LMNB1; soluble abundance after heat, U3A cells"}, "[10]": {"target": "proteins of U3A human fibrosarcoma cells (4462 proteins detected) (Homo sapiens, UniProt P28799)", "conditions": "protein GRN; U3A cells"}, "[11]": {"target": "proteins of U3A human fibrosarcoma cells (4462 proteins detected) (Homo sapiens, UniProt P29992)", "sequence (P29992 whole entry)": "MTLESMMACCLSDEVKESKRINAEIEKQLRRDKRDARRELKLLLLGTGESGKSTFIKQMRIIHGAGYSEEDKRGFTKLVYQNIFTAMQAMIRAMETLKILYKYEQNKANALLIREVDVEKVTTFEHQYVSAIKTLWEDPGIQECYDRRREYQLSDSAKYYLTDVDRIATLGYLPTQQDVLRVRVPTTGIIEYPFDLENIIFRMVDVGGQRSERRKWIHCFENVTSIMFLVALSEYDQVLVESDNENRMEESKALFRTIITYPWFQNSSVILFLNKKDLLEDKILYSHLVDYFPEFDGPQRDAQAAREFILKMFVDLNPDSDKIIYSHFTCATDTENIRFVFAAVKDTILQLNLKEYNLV", "conditions": "protein GNA11; U3A cells"}, "[12]": {"target": "proteins of U3A human fibrosarcoma cells (4462 proteins detected) (Homo sapiens, UniProt P78317)", "conditions": "protein RNF4, U3A cells"}, "[13]": {"target": "proteins of U3A human fibrosarcoma cells (4462 proteins detected) (Homo sapiens, UniProt Q06546)", "conditions": "protein GABPA; U3A cells"}, "[14]": {"target": "proteins of U3A human fibrosarcoma cells (4462 proteins detected) (Homo sapiens, UniProt Q495W5)", "conditions": "protein FUT11; U3A cells"}, "[15]": {"target": "proteins of U3A human fibrosarcoma cells (4462 proteins detected) (Homo sapiens, UniProt Q6KC79)", "sequence (Q6KC79 whole entry)": "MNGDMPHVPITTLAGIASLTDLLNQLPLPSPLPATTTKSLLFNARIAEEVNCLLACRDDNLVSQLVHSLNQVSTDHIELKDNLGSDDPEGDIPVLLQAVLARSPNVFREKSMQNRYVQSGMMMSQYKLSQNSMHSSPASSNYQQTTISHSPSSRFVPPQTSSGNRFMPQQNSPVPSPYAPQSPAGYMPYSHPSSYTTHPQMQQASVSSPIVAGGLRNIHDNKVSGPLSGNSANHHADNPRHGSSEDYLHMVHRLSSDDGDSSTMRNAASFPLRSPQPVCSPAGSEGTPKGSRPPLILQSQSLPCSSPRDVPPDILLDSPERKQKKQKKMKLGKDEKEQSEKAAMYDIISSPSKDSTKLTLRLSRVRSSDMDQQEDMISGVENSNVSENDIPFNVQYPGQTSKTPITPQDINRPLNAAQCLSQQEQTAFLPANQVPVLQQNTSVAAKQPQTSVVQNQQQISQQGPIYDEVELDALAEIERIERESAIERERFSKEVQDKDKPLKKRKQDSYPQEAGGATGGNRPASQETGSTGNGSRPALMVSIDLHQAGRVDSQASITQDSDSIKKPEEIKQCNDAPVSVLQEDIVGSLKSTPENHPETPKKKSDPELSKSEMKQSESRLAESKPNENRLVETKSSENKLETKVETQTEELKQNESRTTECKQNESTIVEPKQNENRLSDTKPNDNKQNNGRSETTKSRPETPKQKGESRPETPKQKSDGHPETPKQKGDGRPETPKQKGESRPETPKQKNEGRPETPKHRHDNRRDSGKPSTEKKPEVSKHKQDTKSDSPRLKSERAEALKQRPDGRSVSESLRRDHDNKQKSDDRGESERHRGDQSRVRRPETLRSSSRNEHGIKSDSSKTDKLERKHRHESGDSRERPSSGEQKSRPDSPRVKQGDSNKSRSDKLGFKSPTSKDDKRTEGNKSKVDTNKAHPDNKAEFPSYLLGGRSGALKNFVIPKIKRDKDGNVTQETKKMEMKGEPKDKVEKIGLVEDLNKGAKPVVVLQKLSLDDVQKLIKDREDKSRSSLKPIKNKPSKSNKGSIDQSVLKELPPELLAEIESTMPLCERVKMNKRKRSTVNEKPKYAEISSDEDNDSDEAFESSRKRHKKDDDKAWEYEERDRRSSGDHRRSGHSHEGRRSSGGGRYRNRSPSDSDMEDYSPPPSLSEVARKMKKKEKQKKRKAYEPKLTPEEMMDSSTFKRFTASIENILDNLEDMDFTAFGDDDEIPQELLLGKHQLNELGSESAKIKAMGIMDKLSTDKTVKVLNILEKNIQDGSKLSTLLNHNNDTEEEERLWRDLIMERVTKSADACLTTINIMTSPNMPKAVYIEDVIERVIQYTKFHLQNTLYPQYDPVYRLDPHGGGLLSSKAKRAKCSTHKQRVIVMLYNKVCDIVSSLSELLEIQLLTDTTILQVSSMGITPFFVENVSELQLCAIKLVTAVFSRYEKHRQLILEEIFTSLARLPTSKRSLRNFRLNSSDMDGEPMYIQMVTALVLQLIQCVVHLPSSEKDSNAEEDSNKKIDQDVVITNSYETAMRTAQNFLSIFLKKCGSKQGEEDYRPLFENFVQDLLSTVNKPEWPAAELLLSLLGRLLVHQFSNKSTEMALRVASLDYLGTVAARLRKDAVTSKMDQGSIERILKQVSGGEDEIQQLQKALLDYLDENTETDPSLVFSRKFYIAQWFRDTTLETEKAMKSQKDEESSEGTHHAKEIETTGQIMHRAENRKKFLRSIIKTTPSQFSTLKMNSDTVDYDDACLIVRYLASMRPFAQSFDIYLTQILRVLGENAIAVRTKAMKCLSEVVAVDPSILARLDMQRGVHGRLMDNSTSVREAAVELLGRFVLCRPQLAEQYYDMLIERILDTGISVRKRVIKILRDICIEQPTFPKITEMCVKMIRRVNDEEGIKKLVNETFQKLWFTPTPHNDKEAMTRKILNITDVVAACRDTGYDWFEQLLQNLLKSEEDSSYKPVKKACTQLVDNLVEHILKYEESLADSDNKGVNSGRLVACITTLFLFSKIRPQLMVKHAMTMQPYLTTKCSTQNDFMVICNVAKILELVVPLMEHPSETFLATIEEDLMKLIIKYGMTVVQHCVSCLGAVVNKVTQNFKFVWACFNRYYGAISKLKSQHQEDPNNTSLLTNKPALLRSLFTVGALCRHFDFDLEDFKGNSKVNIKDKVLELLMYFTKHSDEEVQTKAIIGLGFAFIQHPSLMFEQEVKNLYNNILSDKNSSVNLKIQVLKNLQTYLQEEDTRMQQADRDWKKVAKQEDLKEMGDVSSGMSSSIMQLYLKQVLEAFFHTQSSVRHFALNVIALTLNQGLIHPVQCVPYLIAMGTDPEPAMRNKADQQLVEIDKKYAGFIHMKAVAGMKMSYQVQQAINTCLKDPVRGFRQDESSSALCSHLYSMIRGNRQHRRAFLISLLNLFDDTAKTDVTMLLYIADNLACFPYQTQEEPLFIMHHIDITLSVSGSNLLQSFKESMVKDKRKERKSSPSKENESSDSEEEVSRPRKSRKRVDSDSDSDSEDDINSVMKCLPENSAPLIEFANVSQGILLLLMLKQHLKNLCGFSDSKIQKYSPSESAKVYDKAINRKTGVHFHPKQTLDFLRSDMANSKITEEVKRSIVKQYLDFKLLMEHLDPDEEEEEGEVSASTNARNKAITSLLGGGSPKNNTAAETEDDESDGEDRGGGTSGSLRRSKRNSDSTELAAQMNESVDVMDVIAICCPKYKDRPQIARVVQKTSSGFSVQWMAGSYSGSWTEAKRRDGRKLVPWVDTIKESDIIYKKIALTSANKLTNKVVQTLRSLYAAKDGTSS", "conditions": "protein NIPBL; U3A cells"}, "[16]": {"target": "proteins of U3A human fibrosarcoma cells (4462 proteins detected) (Homo sapiens, UniProt Q6N063)", "conditions": "protein OGFOD2; U3A cells"}, "[17]": {"target": "proteins of U3A human fibrosarcoma cells (4462 proteins detected) (Homo sapiens, UniProt Q86UA6)", "conditions": "protein RPAIN, U3A cells"}, "[18]": {"target": "proteins of U3A human fibrosarcoma cells (4462 proteins detected) (Homo sapiens, UniProt Q8IXK0)", "sequence (Q8IXK0 whole entry)": "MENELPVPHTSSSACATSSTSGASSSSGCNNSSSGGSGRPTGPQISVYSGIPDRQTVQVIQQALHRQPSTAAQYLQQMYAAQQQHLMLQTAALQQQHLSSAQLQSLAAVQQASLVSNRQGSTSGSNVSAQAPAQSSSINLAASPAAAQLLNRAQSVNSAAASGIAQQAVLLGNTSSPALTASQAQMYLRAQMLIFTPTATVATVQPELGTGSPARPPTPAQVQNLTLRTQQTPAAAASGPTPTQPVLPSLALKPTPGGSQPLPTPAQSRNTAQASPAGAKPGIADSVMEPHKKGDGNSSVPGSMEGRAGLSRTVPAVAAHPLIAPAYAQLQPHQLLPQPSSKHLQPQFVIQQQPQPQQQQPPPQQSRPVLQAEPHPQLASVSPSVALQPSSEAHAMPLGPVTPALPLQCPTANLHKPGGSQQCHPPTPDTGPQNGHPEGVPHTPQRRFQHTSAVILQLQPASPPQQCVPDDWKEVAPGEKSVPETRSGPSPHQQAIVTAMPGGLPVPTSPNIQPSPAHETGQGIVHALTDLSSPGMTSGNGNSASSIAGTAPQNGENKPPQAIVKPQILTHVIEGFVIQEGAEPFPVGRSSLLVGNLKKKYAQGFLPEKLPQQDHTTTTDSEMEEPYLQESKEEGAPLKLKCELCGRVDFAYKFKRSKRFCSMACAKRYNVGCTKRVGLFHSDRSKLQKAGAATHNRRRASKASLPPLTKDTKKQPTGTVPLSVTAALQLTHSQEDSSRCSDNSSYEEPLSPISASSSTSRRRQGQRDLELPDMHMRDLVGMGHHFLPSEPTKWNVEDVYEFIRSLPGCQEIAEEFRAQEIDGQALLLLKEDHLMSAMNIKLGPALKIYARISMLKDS", "conditions": "protein PHC2; U3A cells"}, "[19]": {"target": "proteins of U3A human fibrosarcoma cells (4462 proteins detected) (Homo sapiens, UniProt Q92585)", "conditions": "protein MAML1, U3A cells"}, "[20]": {"target": "proteins of U3A human fibrosarcoma cells (4462 proteins detected) (Homo sapiens, UniProt Q96EY8)", "conditions": "protein MMAB; U3A cells"}, "[21]": {"target": "proteins of U3A human fibrosarcoma cells (4462 proteins detected) (Homo sapiens, UniProt Q96FZ2)", "conditions": "protein HMCES, U3A cells"}, "[22]": {"target": "proteins of U3A human fibrosarcoma cells (4462 proteins detected) (Homo sapiens, UniProt Q96TC7)", "conditions": "protein RMDN3; U3A cells"}, "[23]": {"target": "proteins of U3A human fibrosarcoma cells (4462 proteins detected) (Homo sapiens, UniProt Q99459)", "conditions": "protein CDC5L; U3A cells"}, "[24]": {"target": "proteins of U3A human fibrosarcoma cells (4462 proteins detected) (Homo sapiens, UniProt Q9BY89)", "conditions": "protein KIAA1671, U3A cells"}, "[25]": {"target": "proteins of U3A human fibrosarcoma cells (4462 proteins detected) (Homo sapiens, UniProt Q9GZQ3)", "conditions": "protein COMMD5; U3A cells"}, "[26]": {"target": "proteins of U3A human fibrosarcoma cells (4462 proteins detected) (Homo sapiens, UniProt Q9H3N1)", "sequence (Q9H3N1 27-280)": "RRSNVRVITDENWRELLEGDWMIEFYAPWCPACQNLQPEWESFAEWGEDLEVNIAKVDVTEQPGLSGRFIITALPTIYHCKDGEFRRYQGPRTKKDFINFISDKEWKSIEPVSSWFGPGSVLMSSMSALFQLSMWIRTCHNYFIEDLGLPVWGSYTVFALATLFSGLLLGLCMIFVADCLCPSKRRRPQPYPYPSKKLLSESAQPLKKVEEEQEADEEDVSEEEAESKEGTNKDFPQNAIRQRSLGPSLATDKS", "conditions": "protein TMX1; U3A cells"}, "[27]": {"target": "proteins of U3A human fibrosarcoma cells (4462 proteins detected) (Homo sapiens, UniProt Q9H4A6)", "conditions": "protein GOLPH3; U3A cells"}, "[28]": {"target": "proteins of U3A human fibrosarcoma cells (4462 proteins detected) (Homo sapiens, UniProt Q9NXR1)", "conditions": "protein NDE1, U3A cells"}, "[29]": {"target": "proteins of U3A human fibrosarcoma cells (4462 proteins detected) (Homo sapiens, UniProt Q9P2E9)", "conditions": "protein RRBP1; soluble abundance after heat, U3A cells"}, "[30]": {"target": "proteins of U3A human fibrosarcoma cells (4462 proteins detected) (Homo sapiens, UniProt Q9UNZ2)", "conditions": "protein NSFL1C, U3A cells"}}, "data": [{"smiles": "CCc1nc(N)nc(N)c1-c1ccc(Cl)cc1", "note": "[pyrimethamine]", "values": [{"measurement": "Log2 (PYR/DMSO)", "setting": "[1]", "value": 0.18}, {"measurement": "Log2 (PYR/DMSO)", "setting": "[2]", "value": 0.16}, {"measurement": "Log2 (PYR/DMSO)", "setting": "[3]", "value": 0.18}, {"measurement": "Log2 (PYR/DMSO)", "setting": "[4]", "value": 0.14}, {"measurement": "Log2 (PYR/DMSO)", "setting": "[5]", "value": 0.16}, {"measurement": "Log2 (PYR/DMSO)", "setting": "[6]", "value": -0.05}, {"measurement": "Log2 (PYR/DMSO)", "setting": "[7]", "value": -0.05}, {"measurement": "Log2 (PYR/DMSO)", "setting": "[8]", "value": 0.18}, {"measurement": "Log2 (PYR/DMSO)", "setting": "[9]", "value": 0.15}, {"measurement": "Log2 (PYR/DMSO)", "setting": "[10]", "value": 0.21}, {"measurement": "Log2 (PYR/DMSO)", "setting": "[11]", "value": 0.16}, {"measurement": "Log2 (PYR/DMSO)", "setting": "[12]", "value": -0.04}, {"measurement": "Log2 (PYR/DMSO)", "setting": "[13]", "value": 0.19}, {"measurement": "Log2 (PYR/DMSO)", "setting": "[14]", "value": 0.17}, {"measurement": "Log2 (PYR/DMSO)", "setting": "[15]", "value": 0.23}, {"measurement": "Log2 (PYR/DMSO)", "setting": "[16]", "value": 0.16}, {"measurement": "Log2 (PYR/DMSO)", "setting": "[17]", "value": -0.04}, {"measurement": "Log2 (PYR/DMSO)", "setting": "[18]", "value": 0.16}, {"measurement": "Log2 (PYR/DMSO)", "setting": "[19]", "value": -0.04}, {"measurement": "Log2 (PYR/DMSO)", "setting": "[20]", "value": 0.19}, {"measurement": "Log2 (PYR/DMSO)", "setting": "[21]", "value": -0.04}, {"measurement": "Log2 (PYR/DMSO)", "setting": "[22]", "value": 0.15}, {"measurement": "Log2 (PYR/DMSO)", "setting": "[23]", "value": 0.18}, {"measurement": "Log2 (PYR/DMSO)", "setting": "[24]", "value": -0.03}, {"measurement": "Log2 (PYR/DMSO)", "setting": "[25]", "value": 0.21}, {"measurement": "Log2 (PYR/DMSO)", "setting": "[26]", "value": 0.20}, {"measurement": "Log2 (PYR/DMSO)", "setting": "[27]", "value": 0.23}, {"measurement": "Log2 (PYR/DMSO)", "setting": "[28]", "value": -0.04}, {"measurement": "Log2 (PYR/DMSO)", "setting": "[29]", "value": 0.15}, {"measurement": "Log2 (PYR/DMSO)", "setting": "[30]", "value": -0.04}]}]}
